Measurements: ChEMBL document CHEMBL1201862, “PubChem BioAssay data set” (2004)
Each block holds one molecule with its values, some of them ahead of it. The source made the active and inactive calls.

Legend:
[1] = target: 1-phosphatidylinositol 4,5-bisphosphate phosphodiesterase gamma-1 (Homo sapiens, UniProt P19174); experiment: Counterscreen for inhibitors of phospholipase C isozymes (PLC-B3): Fluorescence-based biochemical high throughput dose response assay to identify inhibitors of phospholipase C isozymes (PLC-gamma1).
Sequence of 1-phosphatidylinositol 4,5-bisphosphate phosphodiesterase gamma-1 (P19174 whole entry): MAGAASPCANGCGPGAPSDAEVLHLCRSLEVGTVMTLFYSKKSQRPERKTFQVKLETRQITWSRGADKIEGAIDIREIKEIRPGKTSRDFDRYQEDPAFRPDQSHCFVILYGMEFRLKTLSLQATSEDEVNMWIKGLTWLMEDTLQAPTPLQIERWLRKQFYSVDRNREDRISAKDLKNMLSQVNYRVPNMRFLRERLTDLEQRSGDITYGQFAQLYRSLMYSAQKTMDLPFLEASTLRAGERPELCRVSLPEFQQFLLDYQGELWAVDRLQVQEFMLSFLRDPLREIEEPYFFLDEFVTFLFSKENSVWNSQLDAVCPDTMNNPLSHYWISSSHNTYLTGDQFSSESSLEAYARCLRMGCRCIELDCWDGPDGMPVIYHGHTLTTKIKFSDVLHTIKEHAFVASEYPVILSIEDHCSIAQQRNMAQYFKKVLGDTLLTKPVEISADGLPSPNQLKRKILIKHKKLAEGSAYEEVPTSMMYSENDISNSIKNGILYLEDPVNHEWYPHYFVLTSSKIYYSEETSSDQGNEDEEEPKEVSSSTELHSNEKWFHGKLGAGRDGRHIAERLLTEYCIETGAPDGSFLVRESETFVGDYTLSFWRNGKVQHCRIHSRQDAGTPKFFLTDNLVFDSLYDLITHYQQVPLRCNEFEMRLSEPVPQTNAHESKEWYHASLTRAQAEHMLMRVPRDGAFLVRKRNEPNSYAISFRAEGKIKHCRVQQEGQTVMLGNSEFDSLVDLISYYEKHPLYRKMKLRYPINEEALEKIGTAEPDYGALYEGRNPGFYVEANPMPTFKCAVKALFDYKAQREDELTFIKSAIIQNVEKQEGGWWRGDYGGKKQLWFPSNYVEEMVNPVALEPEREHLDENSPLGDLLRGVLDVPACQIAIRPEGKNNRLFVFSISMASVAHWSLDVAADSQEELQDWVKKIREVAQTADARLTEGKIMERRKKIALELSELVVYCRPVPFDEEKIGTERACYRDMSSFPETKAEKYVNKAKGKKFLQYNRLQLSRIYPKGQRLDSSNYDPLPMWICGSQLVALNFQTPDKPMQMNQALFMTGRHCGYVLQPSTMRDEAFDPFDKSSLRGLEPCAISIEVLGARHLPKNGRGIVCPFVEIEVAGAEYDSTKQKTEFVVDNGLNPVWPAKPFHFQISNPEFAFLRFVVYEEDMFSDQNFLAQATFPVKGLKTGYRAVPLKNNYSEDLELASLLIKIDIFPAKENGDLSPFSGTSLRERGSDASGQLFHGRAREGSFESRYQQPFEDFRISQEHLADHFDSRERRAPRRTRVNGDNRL

[2] = target: 1-phosphatidylinositol 4,5-bisphosphate phosphodiesterase beta-3 (Homo sapiens, UniProt Q01970); experiment: Fluorescence-based biochemical high throughput dose response assay to identify inhibitors of phospholipase C isozymes (PLC-B3).
Sequence of 1-phosphatidylinositol 4,5-bisphosphate phosphodiesterase beta-3 (Q01970 whole entry): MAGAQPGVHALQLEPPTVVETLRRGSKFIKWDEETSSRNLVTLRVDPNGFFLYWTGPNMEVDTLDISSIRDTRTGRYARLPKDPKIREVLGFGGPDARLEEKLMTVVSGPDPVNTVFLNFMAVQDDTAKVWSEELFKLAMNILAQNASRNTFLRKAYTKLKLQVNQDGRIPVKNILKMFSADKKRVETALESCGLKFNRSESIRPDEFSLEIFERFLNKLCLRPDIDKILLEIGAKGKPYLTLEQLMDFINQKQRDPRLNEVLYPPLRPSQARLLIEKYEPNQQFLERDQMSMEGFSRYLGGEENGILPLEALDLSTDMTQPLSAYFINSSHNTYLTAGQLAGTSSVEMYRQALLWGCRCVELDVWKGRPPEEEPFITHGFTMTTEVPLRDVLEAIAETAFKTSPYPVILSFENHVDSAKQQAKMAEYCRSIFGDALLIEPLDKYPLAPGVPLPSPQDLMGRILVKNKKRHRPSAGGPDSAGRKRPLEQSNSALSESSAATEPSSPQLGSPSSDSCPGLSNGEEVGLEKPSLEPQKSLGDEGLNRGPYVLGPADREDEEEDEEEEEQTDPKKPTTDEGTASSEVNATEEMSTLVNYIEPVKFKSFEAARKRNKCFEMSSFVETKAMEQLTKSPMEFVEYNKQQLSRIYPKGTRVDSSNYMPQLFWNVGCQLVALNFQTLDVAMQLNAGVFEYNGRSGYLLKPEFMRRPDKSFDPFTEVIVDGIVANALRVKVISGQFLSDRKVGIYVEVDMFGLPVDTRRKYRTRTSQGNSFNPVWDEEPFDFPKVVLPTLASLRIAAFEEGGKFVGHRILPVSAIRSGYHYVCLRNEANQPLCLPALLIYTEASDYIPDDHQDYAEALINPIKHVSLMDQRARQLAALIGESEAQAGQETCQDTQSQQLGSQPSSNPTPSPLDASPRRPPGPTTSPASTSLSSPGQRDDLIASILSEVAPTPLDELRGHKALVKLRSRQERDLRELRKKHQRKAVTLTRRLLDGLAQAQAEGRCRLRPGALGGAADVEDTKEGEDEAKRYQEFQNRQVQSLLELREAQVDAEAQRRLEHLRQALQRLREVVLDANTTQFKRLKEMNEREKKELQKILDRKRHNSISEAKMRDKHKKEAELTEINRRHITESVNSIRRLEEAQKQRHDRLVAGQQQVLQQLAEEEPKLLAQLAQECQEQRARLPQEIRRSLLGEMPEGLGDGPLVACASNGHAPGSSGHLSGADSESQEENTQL

[3] = HEK293 cell cytotoxicity, dose response, cytotoxicity control, plate reader, cherry-picked samples (AID 743446); type: functional, cell-based
[4] = Luminescence Cell-Based Dose Confirmation HTS to Identify Inhibitors of Platelet Dense Granule Release. [Related pubchem assays: 1663 (Primary HTS), 1678 (Summary of Project)]; type: functional
[5] = A549 cell cytotoxicity, dose response, cytotoxicity control, plate reader, cherry-pick, antagonist series (AID 743412); type: functional, cell-based
BJ [6] = experiment: cytotoxicity toward BJ-TERT-LT-ST fibroblasts, dose response, cell-based, RAS-independent, luminescence (AID 1935); type: functional; details: Homo sapiens;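 note: BJ fibroblasts immortalized with TERT plus LT and ST oncogenes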
BJ [7] = experiment: cytotoxicity toward BJ-TERT fibroblasts, dose response, cell-based, RAS-independent, luminescence (AID 1933); type: functional; details: Homo sapiens
[8] = LGR2 antagonists, dose response, cell-based, HEK293, CRE-luciferase reporter, cherry pick, set 2 (AID 743343); type: functional;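 note: transfected cells were stimulated with diluted bursicon conditioned medium after compound addition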
[9] = MC4R antagonists, dose response, counter-screen for LGR2 antagonist project, cell-based, plate reader, cherry pick (AID 743444); type: functional;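 note: transfected HEK 293 cells stimulated with alpha-MSH peptide; potency of inhibitors of the alpha-MSH evoked signal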
BJ [10] = experiment: cells; type: functional, cell-based; details: Homo sapiens
[11] = cytotoxicity toward DRD oncogenic fibroblasts, dose response, cell-based, non-viral oncogenic, luminescence (AID 1934); type: functional; details: Homo sapiens
[12] = target: Luciferin 4-monooxygenase (Photinus pyralis, UniProt P08659); experiment: firefly luciferase enzyme inhibitors, dose response, biochemical, luminescence (AID 1891)
Sequence of Luciferin 4-monooxygenase (P08659 whole entry): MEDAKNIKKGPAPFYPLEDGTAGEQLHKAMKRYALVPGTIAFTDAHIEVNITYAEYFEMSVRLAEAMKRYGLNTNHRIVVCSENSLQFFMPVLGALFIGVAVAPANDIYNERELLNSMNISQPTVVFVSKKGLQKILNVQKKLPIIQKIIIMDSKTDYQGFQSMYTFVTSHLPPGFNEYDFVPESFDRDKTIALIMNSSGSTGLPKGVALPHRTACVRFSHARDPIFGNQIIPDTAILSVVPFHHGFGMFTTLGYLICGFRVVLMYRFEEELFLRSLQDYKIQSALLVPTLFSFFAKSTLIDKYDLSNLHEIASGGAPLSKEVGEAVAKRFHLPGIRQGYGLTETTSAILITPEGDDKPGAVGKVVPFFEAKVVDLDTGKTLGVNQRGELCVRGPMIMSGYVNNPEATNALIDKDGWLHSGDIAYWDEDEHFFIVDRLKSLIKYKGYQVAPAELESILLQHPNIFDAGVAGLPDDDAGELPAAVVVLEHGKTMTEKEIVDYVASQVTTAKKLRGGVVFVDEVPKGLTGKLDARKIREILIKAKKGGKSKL

[13] = HepG2 cell cytotoxicity, dose response, cytotoxicity control, plate reader, cherry-pick, antagonist series (AID 743416); type: functional, cell-based
HEK293 = experiment: HEK293T cell cytotoxicity, dose response, cytotoxicity control, ATP luminescence, cherry-pick samples (AID 687005); type: functional, cell-based; details: Homo sapiens;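 note: cells exposed to compound for 48 hours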
[14] = HEK293 Cytotoxicity Assay Measured in Cell-Based System Using Plate Reader - 7071-01_Inhibitor_Dose_CherryPick_Activity_Set2.; type: functional
HeLa = experiment: HeLa cell cytotoxicity, dose response, cytotoxicity control, ATP luminescence, cherry-pick samples (AID 687004); type: functional, cell-based; details: Homo sapiens
[15] = Luminescence-based cell-based high throughput dose response assay to identify activators of the DAF-12 from the parasite S. stercoralis (ssDAF-12).; type: functional
[16] = target: T1, Oxysterols receptor LXR-beta (Homo sapiens, UniProt P55055); experiment: LXR agonists, Gal4 luciferase reporter, dose response, counter-screen for ssDAF-12 agonist project, cell-based, luminescence, HEK293, S. stercoralis campaign (AID 720737); type: functional; details: read-out: IC50 (the source's name)
T1 sequence (P55055 whole entry): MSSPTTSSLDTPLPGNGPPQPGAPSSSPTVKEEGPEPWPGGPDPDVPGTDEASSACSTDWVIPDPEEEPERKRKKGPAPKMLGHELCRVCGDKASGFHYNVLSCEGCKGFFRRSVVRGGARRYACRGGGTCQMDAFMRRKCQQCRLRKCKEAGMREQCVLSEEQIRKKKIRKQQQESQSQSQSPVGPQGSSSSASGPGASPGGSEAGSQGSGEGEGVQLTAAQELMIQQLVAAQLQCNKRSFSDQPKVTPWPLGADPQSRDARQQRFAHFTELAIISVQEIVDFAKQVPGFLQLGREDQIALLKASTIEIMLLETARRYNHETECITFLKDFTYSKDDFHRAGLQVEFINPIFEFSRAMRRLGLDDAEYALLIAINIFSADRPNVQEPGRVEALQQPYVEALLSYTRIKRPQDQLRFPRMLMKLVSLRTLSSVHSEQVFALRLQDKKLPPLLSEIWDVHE

Kallikrein-7 = Kallikrein-7 (Homo sapiens, UniProt P49862); experiment: Fluorescence Intensity-based biochemical primary high throughput dose response assay to identify activators of kallikrein-7 (K7) zymogen.
Sequence of Kallikrein-7 (P49862 whole entry): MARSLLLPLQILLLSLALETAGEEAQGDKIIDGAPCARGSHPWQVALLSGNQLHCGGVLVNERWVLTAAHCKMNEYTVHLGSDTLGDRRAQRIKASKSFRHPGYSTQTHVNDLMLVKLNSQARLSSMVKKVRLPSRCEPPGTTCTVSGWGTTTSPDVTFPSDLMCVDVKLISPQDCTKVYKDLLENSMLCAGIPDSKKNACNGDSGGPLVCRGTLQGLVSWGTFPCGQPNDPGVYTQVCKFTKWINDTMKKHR

IC50 [1]: 39.3 µM (inactive)
IC50 [2]: > 122 µM (inactive)
SMILES: O=Cc1cc(N=Nc2ccc(S(=O)(=O)O)cc2)ccc1O

SMILES: CCOc1ccc(Nc2nc(N)c3ccccc3n2)cc1
AC50 [3]: 13.2 µM (active)
EC50 [4]: 0.738 µM (active)
AC50 [5]: 12.8 µM (active)
EC50 (BJ [6]): 17.5 µM (active)
EC50 (BJ [7]): 7.8 µM (active)
AC50 [8]: 1.62 µM (active)
AC50 [9]: 2.31 µM (active)
EC50 (BJ [10]): 8.24 µM (active)
EC50 [11]: 8.22 µM (active)
EC50 [12]: 0.765 µM (active)
AC50 [13]: 12.9 µM (active)

SMILES: CC(C)(C)c1ccc(OCC(=O)NC(c2ccccc2)c2ccccc2)cc1
AC50 (HEK293): 3.2 µM (active)
AC50 [14]: 3.2 µM (active)
AC50 (HeLa): > 70 µM (inactive)

SMILES: O=C(CN1CCOCC1)N[C@@H]1CC[C@@H](CCNC(=O)C2CCC2)O[C@@H]1CO
AC50 (HEK293): 14.8 µM (active)
AC50 [14]: 14.8 µM (active)

SMILES: O=C(O)C(=O)/C(=C\c1ccccc1)c1ccc2ccccc2n1
IC50 [15]: > 67.5 µM (inactive)
EC50 [16]: > 67.5 µM (inactive)

EC50 (Kallikrein-7): > 69.6 µM (inactive)
SMILES: O=C(Nc1c(-c2ccccc2)nc2ncccn12)c1ccccc1
